We go through seven compounds from paper PMC6359800, “2-Ethoxystypandrone, a novel small-molecule STAT3 signaling inhibitor from Polygonum cuspidatum, inhibits cell growth and induces apoptosis of HCC cells and HCC Cancer stem cells” (BMC Complementary and Alternative Medicine, 2019).

Data set [1] relates to IL-6/STAT3 signaling pathway. Also on record: method as in PMID 22855270. The conditions noted are these: previously reported value; read-out: IC50 against STAT3 signaling; cited from earlier work.
For another data set, the system named is HepG2 cells. In words: MTT cell viability assay, HepG2. The conditions noted are these: Homo sapiens, HepG2, 72 h, read-out: IC50, cell growth/viability. The class given is cell-based. The method, then:
(§1) Human hepatocellular carcinoma Hep3B and HepG2 were obtained from the American Type Culture Collection. Human hepatocellular carcinoma Huh-7, Li-7 and SK-HEP-1 cells were kindly provided by Stem Cell Bank, Chinese Academy of Sciences. HepG2/STAT3 cells were cultured in α-MEM (Life Technologies, USA) with 10% FCS (Life Technologies, USA) and the rest cell lines were cultured in DMEM (Life Technologies) with 10% FCS (Life Technologies, USA).
(§2) The cell growth inhibitory activities on human hepatocellular carcinoma cells were examined by the MTT (3-(4,5-dimethylthiazol–2-yl)-2,5-diphenyl tetrazolium bromide). About 3.5 × 10^4 cells per well were seeded into 96-well plates for 24 h. HepG2/STAT3 cells were then treated with vehicle control (DMSO) or 2-ethoxystypandrone (1) at indicated concentrations (0.016, 0.08, 0.4, 2, 10, 50, 100 μM) for 6.5 h. HCC Huh-7, Li-7, SK-HEP-1, HepG3B, and HepG2 cells were treated with 2-ethoxystypandrone (1) at indicated concentrations for 72 h. The assay was carried out by adding a MTT solution (20 μL, 5 mg/mL; Sigma Chemical Co.) to each well and incubating for 3 h at 37 °C to form MTT-formazan crystals by metabolically viable cells. The supernatant was aspirated, and the MTT-formazan crystals were dissolved in DMSO (150 μL). The absorbance was measured by a microplate reader (BioTek Instruments, USA) at a wavelength of 492/620 nm.
In general terms: Tetrazolium assays rely on reduction of a dye to a coloured formazan, in cell work by metabolically active cells.

For data set [2], the system named is human HCC cell lines (Huh-7, Li-7, SK-HEP-1, HepG3B, and HepG2). In words: MTT cell viability assay, panel of human HCC cell lines. It counts as cell-based. The conditions noted are these: five HCC cell lines, 72 h, read-out: IC50 range over tested HCC cells. As for the experimental part: as §1, §2
For data set [3], the system named is STAT3 tyrosine phosphorylation (Tyrosine 705) in HepG2/STAT3 cells. Nature of the data set: Western blot, IL-6-induced STAT3 tyrosine phosphorylation. The class given is cell-based, human. The conditions noted are these: 2 h pretreatment 2-100 μM, IL-6 15 min. The method, then:
Expression of STAT3 and p-STAT3 proteins was analyzed by Western Blot analysis described in previous report. HepG2/STAT3 cells or HepG2 cells were grown to 70–80% confluency and then pre-treated with 2-ethoxystypandrone (1) at different concentrations (0, 2, 10, 50,100 μM) for 2 h. The cells were stimulated with IL-6 for 15 min (the phosphorylation of STAT3 appeared in the 15 min) and then lysed in Laemmli sample buffer and boiled for 5 min. Proteins were then separated by 8% SDS-PAGE and transferred to nitrocellulose membranes. Membranes were blocked in TBS containing 5% nonfat milk 0.1% and Tween 20 (TBST) for 1 h at room temperature and then incubated for 2 h in TBST containing primary antibodies and 5% bovine serum albumin. After being washed with TBST, membranes were then incubated with horseradish peroxidase-conjugated goat anti-mouse IgG (H + L) secondary antibody (#GAM007, MultiSciences) for 1 h, and finally immune complexes were detected by enhanced chemiluminescence. Primary antibodies used in Western blot were mouse anti-STAT3 (#9139,CST), mouse anti-pY-STAT3 (Tyrosine 705, #9138, CST), and mouse anti-α-tubulin (#sc5286, Santa Cruz).

Data set [4] concerns HCC CSCs isolated from HCC Huh-7 cells. Nature of the data set: Tumorsphere formation assay. It counts as cell-based, human. The conditions noted are these: 72 h. As for the experimental part: (§3) HCC cancer stem cells were isolated from HCC Huh-7 cell line by serum-free cancer stem cell culture selection. The Huh-7 cells were collected and washed to remove serum, then suspended and plated in cancer stem cell conditioned culture medium (CSC medium) supplemented with 100 IU/ML pennicillin and 100 μg/ml streptomycin. CSC medium used for sustaining cancer stemness was serum-free DMEM/F12 containing 10 ng/ml basic fibroblast growth factor (bFGF), 20 ng/ml epidermal growth factor (EGF), 4 μg/ml heparin, 100 μg/ml apotransferrin, 25 μg/ml insulin, 9.6 μg/ml putrescin, 20 nM progesterone, 30 nM sodium selenite anhydrous, and 4 mg/ml bovine serum albumin. […]
To propagate the tumorspheres in vitro, spheres were collected by gentle centrifugation, dissociated with 0.005% trypsin-EDTA for 2 min, then added CSC medium and mechanically dissociated with a pipette to single cells. […] The dissociated single sphere-forming cells were diluted to a density of 1000 cells/ml, Then, the 1ml/well diluted cell suspension was plated to ultra-low attachment 12 wells plate and treated with indicated concentrations (0, 0.5, 1, 2, 3, 5, 8 and 10 μM) of compound 2-ethoxystypandrone for 72 h, the tumorspheres were photographed under an inverted microscope (Leica DMi8, Germany) and the tumorspheres larger than 50 μm in diameter were counted using ImageJ 1.45.

A further data set has as its system Li-7 cells. Nature of the data set: MTT cell viability assay, Li-7. It counts as cell-based. The conditions noted are these: Homo sapiens, Li-7, 72 h, read-out: IC50, cell growth/viability. The method, then:
as §1, §2

The test system of data set [5] is IL-6/STAT3 signaling pathway. Nature of the data set: STAT3-dependent luciferase reporter assay. It counts as cell-based, human. The conditions noted are these: for IC50: HepG2/STAT3 luciferase cells, compound 1 h then IL-6 10 ng/mL 5.5 h. The text has this: HepG2/STAT3 cells, a gift of Prof. Xinyuan Fu (National University of Singapore, Singapore), were the human hepatocellular carcinoma HepG2 cells stably transfected with a STAT3-responsive firefly luciferase reporter plasmid. Briefly, three tandem repeats of the oligonucleotide […], which contains the DNA binding sequence of STAT3, was artificially synthesized and introduced into the luciferase reporter vector pGL2-P plasmid (Promega). The pGL2-P/STAT3 construct was confirmed by sequencing. The luciferase reporter plasmid pGL2-P/STAT3 was used to transfect HepG2 cells using Lipofectamine 2000 (Invitrogen). The stably transfected HepG2 cell line with the pGL2-P/STAT3 plasmid was obtained by screening for G418-resistant cell clones.
The inhibitory activities on IL-6/STAT3 signaling were determined by STAT3-dependent luciferase reporter assay described in our previously report. HepG2/STAT3 cells were HepG2 cells stably transfected with a STAT3-responsive firefly luciferase reporter plasmid. The expression level of luciferase reached its peak value after 5–6 h stimulation by interleukin (IL)-6. HepG2/STAT3 cells (2 × 10^4 per well) were seeded into 96-well cell culture microplates (Corning) and allowed to grow for 48 h and then treated with compounds 1–8 (0, 0.00001, 0.0001, 0.001, 0.01, 0.1, 1, 4, 20 μM) for 1 h followed by stimulation with 10 ng/mL interleukin (IL)-6 (BD Biosciences) for 5.5 h (cells were treated with compounds 1–8 for 6.5h). Luciferase activities were measured with the Promega luciferase kit (# E4550) according to the manufacturer’s instruction. All luciferase assay experiments were carried out at least thrice in triplicate to minimize the difference caused by cell number. The JAK2/STAT3 inhibitor pyridone 6 (Merck Chemical) was used as a positive control.

The test system of another data set is SK-HEP-1 cells. In words: MTT cell viability assay, SK-HEP-1. The conditions noted are these: Homo sapiens, SK-HEP1, SK-HEP-1, 72 h, read-out: IC50, cell growth/viability. It counts as cell-based. As for the experimental part: as §1, §2
Data set [6] concerns HepG2/STAT3-luciferase cells. In words: MTT cell viability assay, HepG2/STAT3-luciferase cells 6.5 h. The conditions noted are these: 0.016-100 μM. It counts as cell-based, human. The method, then: as §2
A further data set has as its system HepG3B cells. Nature of the data set: MTT cell viability assay, HepG3B. It counts as cell-based. The conditions noted are these: Homo sapiens, 72 h, read-out: IC50, cell growth/viability. As for the experimental part:
as §1, §2

Data set [7] deals with Huh-7 cells. In words: Annexin V/PI flow cytometry apoptosis, Huh-7. The conditions noted are these: Huh-7, 8 μM, 24 h. The class given is cell-based, human. As for the experimental part:
Huh-7 cells were grown to 70–80% confluence and then treated with various concentrations (0, 2, 4, and 8 μM) of 2-ethoxystypandrone (1) for 24 h. The cells were harvested and […]. The cells were then treated with FITC Annexin V apoptosis detection kit I (BD Biosciences Pharmingen) according to the manufacturer’s protocol and the samples were immediately then analyzed by flow cytometry (BD Canto II, USA). The percentage of cells undergoing apoptosis was calculated with CELLQuest 3.0 software. The dots in the lower left quadrant, upper left quadrant, upper right quadrant, and lower right quadrant represent the viable cells, the damages cells, the cells in late apoptosis and the cells in early apoptosis, respectively.

Data set [8] concerns HCC CSCs. Nature of the data set: PI flow cytometry cell cycle distribution, HCC CSCs. It counts as cell-based, human. The conditions noted are these: 10 μM, 24 h. As for the experimental part:
HCC cancer stem cells were isolated from HCC Huh-7 cell line by serum-free cancer stem cell culture selection. The Huh-7 cells were collected and washed to remove serum, then suspended and plated in cancer stem cell conditioned culture medium (CSC medium) supplemented with 100 IU/ML pennicillin and 100 μg/ml streptomycin. CSC medium used for sustaining cancer stemness was serum-free DMEM/F12 containing 10 ng/ml basic fibroblast growth factor (bFGF), 20 ng/ml epidermal growth factor (EGF), 4 μg/ml heparin, 100 μg/ml apotransferrin, 25 μg/ml insulin, 9.6 μg/ml putrescin, 20 nM progesterone, 30 nM sodium selenite anhydrous, and 4 mg/ml bovine serum albumin. The Huh-7 cells were subsequently cultured in ultra-low attachment 6-well plates at a density of 5000 cells/well, half volume of the flesh medium was exchanged every second day. After 10–14 days of culture, the most Huh-7 cells died and the cells grew up as nonadherent, three-dimensional sphere clusters.
For analysis the apoptosis of HCC CSCs, the suspended tumorspheres were harvested and dissociated mechanically into single cells with 0.005% trypsin-EDTA for 2 min and the dissociated cells were re-seeded with CSC medium and treated with indicated concentrations (0, 5, 8, and 10 μM) of 2-ethoxystypandrone (1) for 24 h. The cells were harvested and then treated with FITC Annexin V apoptosis detection kit I (BD Biosciences Pharmingen, USA) according to the manufacturer’s protocol respectively and the samples were immediately then analyzed by flow cytometry (BD Canto II, USA). […] After washing the cells with pre-cooled PBS twice, the cells were then treated with Propidium iodide (PI)/RNase Staining Buffer (BD Biosciences Pharmingen, USA) according to the manufacturer’s protocol respectively and the samples were immediately then analyzed by flow cytometry (BD Canto II,USA).
A general note: Flow cytometry measures light scatter and fluorescence of single cells or particles in a stream.

Data set [9] deals with Huh-7 cells. Nature of the data set: MTT cell viability assay, Huh-7. It counts as cell-based. The conditions noted are these: Homo sapiens, Huh-7, 72 h, read-out: IC50, cell growth/viability. The method, then: as §1, §2
Data set [10] concerns HCC CSCs. Nature of the data set: Annexin V flow cytometry apoptosis, HCC CSCs. The class given is cell-based, human. The method, then: as §3
For analysis the apoptosis of HCC CSCs, the suspended tumorspheres were harvested and dissociated mechanically into single cells with 0.005% trypsin-EDTA for 2 min and the dissociated cells were re-seeded with CSC medium and treated with indicated concentrations (0, 5, 8, and 10 μM) of 2-ethoxystypandrone (1) for 24 h. The cells were harvested and then treated with FITC Annexin V apoptosis detection kit I (BD Biosciences Pharmingen, USA) according to the manufacturer’s protocol respectively and the samples were immediately then analyzed by flow cytometry (BD Canto II, USA). […]

Like-named read-outs stand apart in the source and are kept apart here.

`COC1=CC(=O)c2c(cc(C)c(C(C)=O)c2O)C1=O` [2-methoxystypandrone, 2-methoxy-6-acetyl-7-methyl-juglone]: the IC50 in data set [1] was 17.2 ± 0.21 µM.
On to `CCOC1=CC(=O)c2c(cc(C)c(C(C)=O)c2O)C1=O` [compound 1, 2-ethoxy-6-acetyl-7-methyl-juglone], for which the IC50 was 20.4 ± 2.9 µM in the data set on HepG2 cells; 3.69 to 20.4 µM in data set [2]; 2.7 ± 0.28 µM in [4] (Homo sapiens, Huh-7, HCC CSCs, spheres larger than 50 μm counted); 5.58 ± 0.89 µM in the data set with Li-7 cells; 7.75 ± 0.18 µM in [5] (Homo sapiens); 8.78 µM with SK-HEP-1 cells. The IC50 is 16.7 ± 0.58 µM with HepG3B cells and 3.69 ± 0.51 µM in the data set on Huh-7 cells [9]. Besides, the “IL-6-induced STAT3 tyrosine phosphorylation” value in [3] was “inhibit the IL-6-induced STAT3 tyrosine phosphorylation in a dose-dependent manner”. Moreover, the “self-renewal and tumorsphere formation vs control” value in [4] (2 μM) is “significantly blocked self-renewal and the tumorsphere formation”. Also, in data set [5] (ratio of IC50 values), the “increased potency against STAT3 signaling compared with 2-methoxystypandrone” value is on record as 2 fold. For the same compound, the cell viability entry in data set [6] is reported as “not completely dead”. The total apoptosis with Huh-7 cells [7] is given as 88.6 ± 1.4%. For the same compound, the “cells in G0/G1” value in the data set on HCC CSCs [8] turned out to be 37.53 ± 1.32%. The “cells in G2/M phase” value in the data set on HCC CSCs [8] is 18.5 ± 0.36%. In addition, the “cells in S phase” value with HCC CSCs [8] worked out at 43.96 ± 1.07%. Further, in the data set with HCC CSCs [10] (10 μM, 24 h), the “percentage of apoptotic cells” value is listed as 41.2 ± 4.3%. The same compound gave an early apoptotic cells in the data set with HCC CSCs [10] (24 h (text; 10 μM per Fig. 5a)) of 38.2 ± 4.2%.
Take `O=C1COc2cc(O)cc(O)c21` [compound 3, 4,6-dihydroxybenzofuran-3-one]: the IC50 in [5] (Homo sapiens) was greater than 100 µM.
The same measure, in the same setting: to `O=C(OC1C(Oc2cc(O)cc(C=Cc3ccc(O)cc3)c2)OC(CO)C(O)C1O)c1cc(O)c(O)c(O)c1` (stereo not drawn) [compound 5, polydatin-2′-O-gallate] belongs greater than 100 µM; to `OC[C@H]1O[C@@H](Oc2cc(O)cc(/C=C/c3ccc(O)cc3)c2)[C@H](O)[C@@H](O)[C@@H]1O` [compound 6, polydatin], greater than 100 µM.
On the same count and under the same terms, for `O=C(OC1Cc2c(O)cc(O)cc2OC1c1ccc(O)c(O)c1)c1cc(O)c(O)c(O)c1` (stereo not drawn) [compound 7, catechin-3-O-gallate] the value was greater than 100 µM.
In the case of `CC(C)(C)c1nc2c3cc[nH]c(=O)c3c3cc(F)ccc3c2[nH]1` [pyridone 6, reference compound], the IC50 in [5] was 0.02 ± 0.001 µM.
